Results reported in ChEMBL document CHEMBL1201862, “PubChem BioAssay data set” (2004).
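Test compounds were applied to cells in 96-well plates for 48 hours at 5 doses. GI50 is the concentration that inhibits growth by half.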 Active and inactive are the calls of the source. Rule as the data show it: active = GI50 up to about 1.1 µM and inactive = higher.

What was measured:
Assay in all cases: DTP human tumour cell line panel, 48 h
[1] = test system: HCC 2998
[2] = test system: Hs-578T
[3] = test system: KM12
[4] = test system: LOX IMVI
[5] = test system: MOLT-4
[6] = test system: NCI-H226
[7] = test system: NCI-H460
[8] = test system: NCI/ADR-RES
[9] = test system: OVCAR-8
[10] = test system: RXF 393
[11] = test system: SF-268
[12] = test system: SF-539
[13] = test system: SK-MEL-28
[14] = test system: SNB-19
[15] = test system: SR
[16] = test system: SW-620
[17] = test system: T47D
[18] = test system: TK-10
[19] = test system: CAKI-1
[20] = test system: PC-3

For `C=CCC(C)C12CCNC(Cc3ccc(O)cc31)C2C` (stereo not drawn), the GI50 [1] was 51.1 µM (inactive), the GI50 [2] was 82.8 µM (inactive) and the GI50 [3] was > 100 µM (inactive). For the same compound, the GI50 [4] was > 100 µM (inactive), the GI50 [5] was 84.5 µM (inactive) and the GI50 [6] was > 100 µM (inactive). For the same compound, the GI50 [7] was 89.9 µM (inactive), the GI50 [8] was > 100 µM (inactive) and the GI50 [9] was > 100 µM (inactive). For the same compound, the GI50 [10] was > 100 µM (inactive), the GI50 [11] was > 100 µM (inactive) and the GI50 [12] was > 100 µM (inactive). For the same compound, the GI50 [13] was > 100 µM (inactive), the GI50 [14] was > 100 µM (inactive) and the GI50 [15] was 82.4 µM (inactive). For the same compound, the GI50 [16] was > 100 µM (inactive), the GI50 [17] was > 100 µM (inactive) and the GI50 [18] was > 100 µM (inactive).
For `CC1(C)C2CCC(N)(C2)C1N` (stereo not drawn), the GI50 [19] was > 100 µM (inactive), the GI50 [1] was > 100 µM (inactive) and the GI50 [3] was > 100 µM (inactive). The GI50 [4] was > 100 µM (inactive), the GI50 [5] was > 100 µM (inactive) and the GI50 [6] was > 100 µM (inactive). For the same compound, the GI50 [7] was > 100 µM (inactive), the GI50 [8] was > 100 µM (inactive) and the GI50 [9] was > 100 µM (inactive). The GI50 [20] was > 100 µM (inactive), the GI50 [10] was > 100 µM (inactive) and the GI50 [13] was > 100 µM (inactive). The GI50 [14] was > 100 µM (inactive), the GI50 [15] was > 100 µM (inactive) and the GI50 [16] was > 100 µM (inactive). The GI50 [17] was > 100 µM (inactive) and the GI50 [18] was > 100 µM (inactive).
For `O=C1Nc2cc(Cl)ccc2C(=O)N2CCC[C@@H]12`, the GI50 [19] was > 100 µM (inactive), the GI50 [1] was > 100 µM (inactive) and the GI50 [2] was 33.5 µM (inactive). For the same compound, the GI50 [3] was > 100 µM (inactive), the GI50 [4] was > 100 µM (inactive) and the GI50 [6] was 0.929 µM (active). For the same compound, the GI50 [7] was > 100 µM (inactive), the GI50 [8] was > 100 µM (inactive) and the GI50 [9] was > 100 µM (inactive). For the same compound, the GI50 [20] was > 100 µM (inactive), the GI50 [10] was > 100 µM (inactive) and the GI50 [11] was > 100 µM (inactive). The GI50 [13] was > 100 µM (inactive), the GI50 [14] was > 100 µM (inactive) and the GI50 [16] was > 100 µM (inactive). The GI50 [17] was > 100 µM (inactive) and the GI50 [18] was > 100 µM (inactive).
In the case of `S=C(N/N=C(/c1ccccc1)c1ccccn1)N1CCCCCC1`, the GI50 [19] is reported as 0.0818 µM (active), the GI50 [1] is reported as 0.176 µM (active) and the GI50 [2] is reported as 0.3 µM (active). For the same compound, the GI50 [3] was < 0.0306 µM (active), the GI50 [5] was < 0.0134 µM (active) and the GI50 [6] was 0.0379 µM (active). For the same compound, the GI50 [7] was < 0.0283 µM (active), the GI50 [8] was < 0.0194 µM (active) and the GI50 [9] was < 0.0256 µM (active). The GI50 [20] was < 0.0198 µM (active), the GI50 [10] was 0.67 µM (active) and the GI50 [11] was < 0.0391 µM (active). For the same compound, the GI50 [12] was 0.198 µM (active), the GI50 [14] was 0.308 µM (active) and the GI50 [16] was < 0.0214 µM (active). For the same compound, the GI50 [17] was 0.0843 µM (active) and the GI50 [18] was 0.112 µM (active).
With `N#CC1=C(N)OC(c2cccc([N+](=O)[O-])c2)C1(C#N)C#N` (stereo not drawn) the GI50 [19] was 2.98 µM (inactive), the GI50 [1] was 20.9 µM (inactive) and the GI50 [2] was 84.3 µM (inactive). For the same compound, the GI50 [3] was > 10 µM (inactive), the GI50 [4] was 15.1 µM (inactive) and the GI50 [6] was 30.8 µM (inactive). The GI50 [8] was 34.3 µM (inactive), the GI50 [9] was 29.4 µM (inactive) and the GI50 [20] was 23.7 µM (inactive). The GI50 [10] was 20 µM (inactive), the GI50 [11] was 26.5 µM (inactive) and the GI50 [12] was 21.8 µM (inactive). The GI50 [14] was 21.8 µM (inactive), the GI50 [16] was > 10 µM (inactive) and the GI50 [17] was 17.4 µM (inactive). For the same compound, the GI50 [18] was 19.1 µM (inactive).
For `CC1=CC(O)C(C(O)(C(F)(F)F)C(F)(F)F)C(C)(C)C1` (stereo not drawn), the GI50 [19] was > 10 µM (inactive), the GI50 [1] was > 10 µM (inactive) and the GI50 [2] was > 10 µM (inactive). For the same compound, the GI50 [3] was > 10 µM (inactive), the GI50 [4] was > 10 µM (inactive) and the GI50 [5] was > 10 µM (inactive). The GI50 [6] was > 10 µM (inactive), the GI50 [7] was > 10 µM (inactive) and the GI50 [8] was > 10 µM (inactive). The GI50 [9] was > 10 µM (inactive), the GI50 [20] was > 10 µM (inactive) and the GI50 [10] was > 10 µM (inactive). For the same compound, the GI50 [11] was > 10 µM (inactive), the GI50 [12] was > 10 µM (inactive) and the GI50 [13] was > 10 µM (inactive). The GI50 [14] was > 10 µM (inactive), the GI50 [16] was > 10 µM (inactive) and the GI50 [17] was > 10 µM (inactive). For the same compound, the GI50 [18] was > 10 µM (inactive).
`COc1ccc(CCCNC(=O)Cc2ccccc2CO)cc1OC` was tested, and the GI50 [19] was > 100 µM (inactive), the GI50 [1] was > 100 µM (inactive) and the GI50 [2] was > 100 µM (inactive). For the same compound, the GI50 [3] was > 100 µM (inactive), the GI50 [4] was > 100 µM (inactive) and the GI50 [5] was > 100 µM (inactive). For the same compound, the GI50 [6] was > 100 µM (inactive), the GI50 [7] was > 100 µM (inactive) and the GI50 [8] was > 100 µM (inactive). The GI50 [9] was > 100 µM (inactive), the GI50 [20] was > 100 µM (inactive) and the GI50 [13] was > 100 µM (inactive). For the same compound, the GI50 [14] was > 100 µM (inactive), the GI50 [15] was > 100 µM (inactive) and the GI50 [16] was > 100 µM (inactive). For the same compound, the GI50 [17] was > 100 µM (inactive) and the GI50 [18] was > 100 µM (inactive).
In the case of `O=C1/C(=C/c2ccco2)N=C2Sc3c([nH]cnc3=O)N12`, the GI50 [19] is reported as > 100 µM (inactive), the GI50 [2] is reported as > 100 µM (inactive) and the GI50 [3] is reported as > 100 µM (inactive). For the same compound, the GI50 [4] was > 100 µM (inactive), the GI50 [5] was > 100 µM (inactive) and the GI50 [6] was > 100 µM (inactive). The GI50 [8] was > 100 µM (inactive), the GI50 [9] was > 100 µM (inactive) and the GI50 [20] was > 100 µM (inactive). The GI50 [10] was > 100 µM (inactive), the GI50 [11] was > 100 µM (inactive) and the GI50 [12] was > 100 µM (inactive). The GI50 [13] was > 100 µM (inactive), the GI50 [14] was > 100 µM (inactive) and the GI50 [16] was > 100 µM (inactive). The GI50 [17] was > 100 µM (inactive) and the GI50 [18] was > 100 µM (inactive).
